According to patent US20100041089A1, “IMPROVED METHOD FOR DETECTING CHEMICAL […]” (priority 2006, published 2010):

Tested on: yeast genes (expressed mRNA)
Test: DNA chip measurement of expressed mRNA of yeast genes after culture with a toxic chemical substance
Format: cell-based, Saccharomyces cerevisiae S288C
Summary of the method: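 Yeast S288C, YPD 25° C; toxicant at log phase, 2 h, sublethal growth-inhibiting conc.; no-chemical control. Hot SDS/acetate RNA extraction, oligo-dT mRNA, Cy3/Cy5-dUTP RT. Whole-genome chip, 65° C >12 h. Readout: treated/control intensity ratio, ≥2 significant.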

For `CN(C)C(=S)SSC(=S)N(C)C` [(10), Tetramethylthiuram disulfide], which “The level of expressed mRNA in the presence of chemical substance/The level of expressed mRNA in the absence of chemical substance” value (yeast gene YAL053W, cultured two hours with substance) is on record?
Its value is 0.9.

And the “The level of expressed mRNA in the presence of chemical substance/The level of expressed mRNA in the absence of chemical substance” value (yeast gene YAR028W, cultured two hours with substance)?
The value was 0.9.

And the “The level of expressed mRNA in the presence of chemical substance/The level of expressed mRNA in the absence of chemical substance” value (yeast gene YBL043W)?
Its value is 14.7.

What about the “The level of expressed mRNA in the presence of chemical substance/The level of expressed mRNA in the absence of chemical substance” value (yeast gene YBL048W, cultured two hours with substance) of the same molecule?
Its value is 4.4.

And the “The level of expressed mRNA in the presence of chemical substance/The level of expressed mRNA in the absence of chemical substance” value (yeast gene YBL078C)?
The value was 15.2.

And the “The level of expressed mRNA in the presence of chemical substance/The level of expressed mRNA in the absence of chemical substance” value (yeast gene YBL107C, cultured two hours with substance)?
Its value is 3.1.

And the “The level of expressed mRNA in the presence of chemical substance/The level of expressed mRNA in the absence of chemical substance” value (yeast gene YBR008C (detoxification protein gene))?
Its value is 21.1.

And the “The level of expressed mRNA in the presence of chemical substance/The level of expressed mRNA in the absence of chemical substance” value (yeast gene YBR008C (transport facilitation protein gene))?
The value was 21.1.

What about the “The level of expressed mRNA in the presence of chemical substance/The level of expressed mRNA in the absence of chemical substance” value (yeast gene YBR046C) of the same molecule?
Its value is 6.2.

And the “The level of expressed mRNA in the presence of chemical substance/The level of expressed mRNA in the absence of chemical substance” value (yeast gene YBR072W (stress protein genes))?
The value was 43.4.

And the “The level of expressed mRNA in the presence of chemical substance/The level of expressed mRNA in the absence of chemical substance” value (yeast gene YBR099C, cultured two hours with substance)?
Its value is 12.9.

What about the “The level of expressed mRNA in the presence of chemical substance/The level of expressed mRNA in the absence of chemical substance” value (yeast gene YCL027W) of the same molecule?
Its value is 16.3.

And the “The level of expressed mRNA in the presence of chemical substance/The level of expressed mRNA in the absence of chemical substance” value (yeast gene YCL069W (detoxification protein gene))?
The value was 6.9.

What about the “The level of expressed mRNA in the presence of chemical substance/The level of expressed mRNA in the absence of chemical substance” value (yeast gene YCL069W (transport facilitation protein gene)) of the same molecule?
The value was 6.9.

And the “The level of expressed mRNA in the presence of chemical substance/The level of expressed mRNA in the absence of chemical substance” value (yeast gene YCR102C, cultured two hours with substance)?
Its value is 61.5.

And the “The level of expressed mRNA in the presence of chemical substance/The level of expressed mRNA in the absence of chemical substance” value (yeast gene YDL021W, cultured for two hours with substance)?
Its value is 7.4.

And the “The level of expressed mRNA in the presence of chemical substance/The level of expressed mRNA in the absence of chemical substance” value (yeast gene YDL059C, DNA repair protein genes, cultured two hours with substance)?
Its value is 7.8.

And the “The level of expressed mRNA in the presence of chemical substance/The level of expressed mRNA in the absence of chemical substance” value (yeast gene YDL072C, cultured two hours with substance)?
The value was 1.5.

What about the “The level of expressed mRNA in the presence of chemical substance/The level of expressed mRNA in the absence of chemical substance” value (yeast gene YDL204W, cultured two hours with substance) of the same molecule?
Its value is 2.0.

What about the “The level of expressed mRNA in the presence of chemical substance/The level of expressed mRNA in the absence of chemical substance” value (yeast gene YDL218W, cultured two hours with substance) of the same molecule?
The value was 12.6.

What about the “The level of expressed mRNA in the presence of chemical substance/The level of expressed mRNA in the absence of chemical substance” value (yeast gene YDL222C, cultured two hours with substance) of the same molecule?
The value was 1.0.

What about the “The level of expressed mRNA in the presence of chemical substance/The level of expressed mRNA in the absence of chemical substance” value (yeast gene YDL243C) of the same molecule?
The value was 29.6.

And the “The level of expressed mRNA in the presence of chemical substance/The level of expressed mRNA in the absence of chemical substance” value (yeast gene YDL243C, cultured for two hours with substance)?
The value was 29.6.

And the “The level of expressed mRNA in the presence of chemical substance/The level of expressed mRNA in the absence of chemical substance” value (yeast gene YDR031W, cultured two hours with substance)?
Its value is 2.7.

And the “The level of expressed mRNA in the presence of chemical substance/The level of expressed mRNA in the absence of chemical substance” value (yeast gene YDR056C, cultured two hours with substance)?
Its value is 2.3.

And the “The level of expressed mRNA in the presence of chemical substance/The level of expressed mRNA in the absence of chemical substance” value (yeast gene YDR069C)?
Its value is 4.5.

And the “The level of expressed mRNA in the presence of chemical substance/The level of expressed mRNA in the absence of chemical substance” value (yeast gene YDR210W, cultured two hours with substance)?
The value was 1.0.

What about the “The level of expressed mRNA in the presence of chemical substance/The level of expressed mRNA in the absence of chemical substance” value (yeast gene YDR258C (stress protein genes)) of the same molecule?
Its value is 13.3.

What about the “The level of expressed mRNA in the presence of chemical substance/The level of expressed mRNA in the absence of chemical substance” value (yeast gene YDR258C, mitochondria-located protein gene) of the same molecule?
Its value is 13.3.

What about the “The level of expressed mRNA in the presence of chemical substance/The level of expressed mRNA in the absence of chemical substance” value (yeast gene YDR330W, cultured two hours with substance) of the same molecule?
The value was 2.6.

And the “The level of expressed mRNA in the presence of chemical substance/The level of expressed mRNA in the absence of chemical substance” value (yeast gene YDR353W)?
The value was 5.1.

What about the “The level of expressed mRNA in the presence of chemical substance/The level of expressed mRNA in the absence of chemical substance” value (yeast gene YDR391C, cultured two hours with substance) of the same molecule?
The value was 2.7.

What about the “The level of expressed mRNA in the presence of chemical substance/The level of expressed mRNA in the absence of chemical substance” value (yeast gene YDR411C, cultured two hours with substance) of the same molecule?
Its value is 1.0.

What about the “The level of expressed mRNA in the presence of chemical substance/The level of expressed mRNA in the absence of chemical substance” value (yeast gene YDR486C, cultured two hours with substance) of the same molecule?
Its value is 5.8.

What about the “The level of expressed mRNA in the presence of chemical substance/The level of expressed mRNA in the absence of chemical substance” value (yeast gene YDR511W, cultured two hours with substance) of the same molecule?
The value was 2.2.

What about the “The level of expressed mRNA in the presence of chemical substance/The level of expressed mRNA in the absence of chemical substance” value (yeast gene YDR533C, cultured two hours with substance) of the same molecule?
Its value is 12.7.

What about the “The level of expressed mRNA in the presence of chemical substance/The level of expressed mRNA in the absence of chemical substance” value (yeast gene YDR545W, cultured two hours with substance) of the same molecule?
Its value is 0.7.

What about the “The level of expressed mRNA in the presence of chemical substance/The level of expressed mRNA in the absence of chemical substance” value (yeast gene YEL001C, cultured two hours with substance) of the same molecule?
The value was 1.2.

And the “The level of expressed mRNA in the presence of chemical substance/The level of expressed mRNA in the absence of chemical substance” value (yeast gene YER004W, cultured two hours with substance)?
Its value is 2.9.

What about the “The level of expressed mRNA in the presence of chemical substance/The level of expressed mRNA in the absence of chemical substance” value (yeast gene YER035W, cultured two hours with substance) of the same molecule?
The value was 1.4.

What about the “The level of expressed mRNA in the presence of chemical substance/The level of expressed mRNA in the absence of chemical substance” value (yeast gene YER038C, cultured two hours with substance) of the same molecule?
Its value is 2.5.

And the “The level of expressed mRNA in the presence of chemical substance/The level of expressed mRNA in the absence of chemical substance” value (yeast gene YER069W)?
Its value is 10.4.

What about the “The level of expressed mRNA in the presence of chemical substance/The level of expressed mRNA in the absence of chemical substance” value (yeast gene YER069W, mitochondria-located protein gene) of the same molecule?
The value was 10.4.

And the “The level of expressed mRNA in the presence of chemical substance/The level of expressed mRNA in the absence of chemical substance” value (yeast gene YER079W, cultured two hours with substance)?
Its value is 3.4.

And the “The level of expressed mRNA in the presence of chemical substance/The level of expressed mRNA in the absence of chemical substance” value (yeast gene YER106W, cultured two hours with substance)?
Its value is 1.8.

And the “The level of expressed mRNA in the presence of chemical substance/The level of expressed mRNA in the absence of chemical substance” value (yeast gene YER158C, cultured two hours with substance)?
Its value is 1.6.

And the “The level of expressed mRNA in the presence of chemical substance/The level of expressed mRNA in the absence of chemical substance” value (yeast gene YER163C, cultured two hours with substance)?
The value was 3.4.

And the “The level of expressed mRNA in the presence of chemical substance/The level of expressed mRNA in the absence of chemical substance” value (yeast gene YER175C, cultured two hours with substance)?
The value was 11.5.

What about the “The level of expressed mRNA in the presence of chemical substance/The level of expressed mRNA in the absence of chemical substance” value (yeast gene YFL006W, cultured two hours with substance) of the same molecule?
The value was 1.7.
